Legend:
[1] = tested on: cerebral hippocampal neurons; experiment: Neurite outgrowth action (Test Example 5); type: cell-based, Sprague-Dawley rats; settings: rat hippocampal neurons, 24 hours after addition
Method: From 18 day-old Sprague-Dawley rats, cerebral hippocampal neurons were prepared according to the method of Neuman et al. (Neuman, H. R. et al., J. Neurosci., 22, pp. 854–862, 2002). The prepared neurons were cultured for 24 hours according to the method of Tanaka et al. (Tanaka, H. et al., J. Cell Biol., 158 (2), pp. 321–329, 2002), then the medium was exchanged with fresh medium, and test medicaments of various concentrations or equivalent amounts of vehicle were added. Twenty-four hours after the addition of the medicaments, neurite length of each neuron was measured for the medicament-added group and the no-addition group, and compared. The neurite length was evaluated according to the method of Neuman et al. (Neuman, H. R. et al., J. Neurosci., 22, pp. 854–862, 2002).

intraocular pressure = experiment: Intraocular pressure reducing action (Test Example 4); type: in vivo, Japanese white rabbit; settings: rabbit, 50 μl of aqueous solution dropped to the left eye
Method: A Japanese white rabbit having a body weight of about 2 kg was placed in a positioner and naturalized for one week before the experiment. An ophthalmologic local anesthesant (Benoxil) was administered to the left eye, and then intraocular pressure was measured by using a tonometer (Classic 30, Solan). The initial value of the intraocular pressure was measured, then 50 μl of an aqueous solution of a test compound was dropped to the left eye at various concentrations, and the intraocular pressure was measured with passage of time.

[2] = tested on: thoracic aorta constricted with phenylephrine; experiment: Vasoconstriction inhibitory action (Test Example 2); parameters: species or system Rats (Wistar); settings: test compound 1 μM; rat thoracic aorta constricted with phenylephrine 1 μM
Source text: Rats (Wistar, 11-week old) were bleeded to death and laparotomized to take out the thoracic aorta. That aorta was cut into a ring of a length of about 3 mm in a conventional manner (Asano, T., et al., J. Pharmacol. Exp. Ther., 241, pp. 1033–1040 (1987)) and hung in 10-ml organ bath filled with Krebs-Hensright nutrient solution bubbled with a mixed gas of 95% O2 and 5% CO2. One end of the blood vessel was connected to an isometric transducer (FD Pickup TB-912T, Nihon Kohden) and applied with 2.5 g of resting tension, and constriction and relaxation reactions of the aorta were recorded.
The aorta was constricted with phenylephrine (1 μM, Sigma) and then added with a test compound (1 μM), and the vasoconstriction inhibitory action thereof was observed. The vasoconstriction inhibitory actions of the test compounds were calculated as relaxation ratios, which were based on the vasoconstriction with phenylephrine observed immediately before the addition of the test compounds taken as 100%.

[3] = tested on: lipopolysaccharide-induced pulmonary inflammation; experiment: Pulmonary inflammation suppressing action, LPS-induced (Test Example 8); type: in vivo, BALB/c female mice; settings: mice, LPS inhalation, test compound by inhalation over 10 minutes, 3 hours after administration
Source text: According to Gonzales de Moraes, V L., et al., Br. J. Pharmacol., 123, pp. 631–6, 1998, suppressing action on pulmonary inflammation was studied. BALB/c female mice (7-week old) were used for the test, as the compound administration group and positive control group, each consisting of 7 mice, as well as the negative control group consisting of 5 mice. For induction of inflammation, a 0.03% physiological saline solution of a lipopolysaccharide (LPS, a mixture derived from Escherichia coli O55 and B5 strains, Sigma) was used. A test compound was dissolved in physiological saline to prepare solutions of various concentrations. The test animals were first inhaled with the aforementioned lipopolysaccharide solution for 10 minutes by using a pressurization type nebulizer (PARI-IS2) to induce inflammation. Then, 1 minute after the completion of the inhalation of the lipopolysaccharide solution, the animals were administered with a solution of test compound at various concentrations over 10 minutes by inhalation using the aforementioned nebulizer. The mice of the positive control group were administered with the same volume of physiological saline instead of the test compound solution over 10 minutes by inhalation. Three hours after the administration of the test compound, pulmonary cavities of the test animals were washed with physiological saline, and the total infiltrated leucocyte (WBC) number was counted.

neutrophils = experiment: Neutrophil migration inhibitory action, Boyden Chamber, FMLP (Test Example 6); type: cell-based; settings: 0.5 h, human neutrophils, FMLP 1 μM, 37° C., 30 minutes, read-out: concentration at which the migration of neutrophils is inhibited (IC50)
Method: Neutrophils were isolated from 50 to 100 ml of peripheral blood collected from healthy human donors by the method described in Test Example 1 to obtain a cell suspension (8×10^6/ml). Subsequently, solutions of a test compound at various concentrations were introduced into wells of a 96-well plate in a volume of 125 μl per well, the cell suspension of an equivalent volume was added to it and the plate was preincubated at room temperature for 5 minutes. During the preincubation, FMLP (1 μM, Sigma) solution was added to the lower chamber to set Boyden Chamber, the preincubated cell suspension was added to the upper chamber in a volume of 200 μl per well, and the cells were allowed to migrate at 37° C. under 5% carbon dioxide for 30 minutes. The filter after the migration was collected, and the non-migrated cells adhered to the surface that faced the upper chamber were carefully wiped off. Then, the migrated cells on the back surface were stained with DifQuick dye solution (International Reagents), washed with water and dried, and then absorbance was measured at 595 nm. The inhibition ratio against migration (%) of a test compound was calculated by using the following equation: Migration inhibition ratio (%)=(1−Absorbance of the group with addition of test compound/Absorbance of the group without addition of test compound)×100
Further, the migration inhibitory ratio was calculated with changing the test compound concentration, and a compound concentration providing an inhibition ratio of 50% was obtained as IC50. The compounds of the present invention obtained in Examples 1, 11, 12, 13, 14, 15, 16, 18, 19, 20, 21, 22, 24, 31, 41, 42, 47, 52, 53, 54, 55, 56, 57, 58, 59, 60, 62, 63, 64, 65, 66, 67, 68, 72, 73, 74, 75, 76, 77, 78, 79, 80, 81, 82, 83, 84, 87, 88, 89, 90, and 91 inhibited the migration of neutrophils at a concentration of 40 μM or less, and further, the compounds of Examples 1, 11, 12, 13, 14, 15, 19, 21, 22, 24, 31, and 41 inhibited the migration of neutrophils at a concentration of 10 μM or less. Further, trans-benzyl-[4-(2,3-dihydro-1,5-diazaphenalen-1-yl)cyclohexyl]amine inhibited the migration of neutrophils at a concentration of 40 μM or less.

[4] = tested on: phosphorylated myosin regulatory light chain in neutrophils; experiment: Action on amount of phosphorylated myosin regulatory light chain in the cells (Test Example 1); type: cell-based; settings: Neutrophil, 5 min; human neutrophils, reaction at 25° C. for 5 minutes; read-out: concentration at which the phosphorylation of myosin regulatory light chain is inhibited (IC50)
Method: A volume of 50 to 100 ml of peripheral blood collected from healthy volunteers was centrifuged by using Mono-Poly separator solution (Dainippon Pharmaceutical) to prepare a neutrophil containing fraction. The neutrophils were washed with PBS(−) and resuspended in Hanks' Balanced Salt Solution (HBSS+, Gibco) to prepare a cell suspension (8×10^6/ml). The cell suspension was diluted to 5×10^6/ml, introduced into Eppendorf tubes in a volume of 0.4 ml each, then 0.1 ml each of solutions of a test compound at various concentrations were added to the suspension and allowed to react at 25° C. for 5 minutes. After the reaction, 0.1 ml of trichloroacetic acid solution was added to each reaction, the reaction mixture was gently shaken and centrifuged at 12,000 rpm (4° C., 5 minutes), and the supernatant was removed. Subsequently, 3 μl of 1 M Tris solution was added to the residue, the mixture was further mixed with 50 μl of extraction buffer (8 M urea, 0.02% 2-mercaptoethanol, 0.002% bromophenol blue) and left stand at room temperature for 1 hour. Then, the reaction mixture was loaded on a spin column (0.45 μm, Millipore) to remove the insoluble solids and a sample buffer for SDS polyacrylamide gel electrophoresis (25 mM, Tris-HCl pH 6.8, 2.5% 2-mercaptoethanol, 2% sodium dodecylsulfate, 5% sucrose, 0.002% bromophenol blue as final concentrations) was added, and 10 μl of each sample was subjected to electrophoresis.
The gel after the electrophoresis was blotted on a nitrocellulose membrane (BioRad), blocked with 5% skim milk, and reacted successively with antibodies pLC1 (Sakurada K. et al, Am. J. Physiol., 274, C1563–C1572 (1998)), which specifically recognize the phosphorylated myosin regulatory light chain, and donkey anti-mouse IgG (Chemicon) conjugated with horseradish peroxidase. The band of the phosphorylated myosin regulatory light chain was detected on a film by using ECL Plus Kit (Amersham Pharmacia Biotech). This band was subjected to quantification using a densitometer. By using this value, the inhibitory ratio (%) for phosphorylation of the myosin regulatory light chain was calculated by using the following equation. Phosphorylation inhibition ratio (%)=1−(Band intensity of phosphorylated myosin regulatory light chain with addition of the test compound/Band intensity of phosphorylated myosin regulatory light chain without addition of the test compound)×100
Further, the phosphorylation inhibition ratio was calculated with changing the concentrations of the test compound, and a compound concentration providing an inhibition ratio of 50% was obtained as IC50.

Row | Compound | neurite outgrowth (neurite length) [1] | intraocular pressure reducing action (intraocular pressure) | vasoconstriction inhibitory action (relaxation ratio) [2] | pulmonary inflammation, total infiltrated leucocyte (WBC) number [3] | IC50 (neutrophils) [µM] | IC50 [4] [µM]
1 | Cl.O=C(O)CCN1CCC(N2CCc3cncc4cccc2c34)CC1 [Example 16] | significant neurite outgrowth axis extension | significant intraocular pressure reducing action | significant vasoconstriction inhibitory action |  |  | 
2 | COCCN1CCC(N2CCc3cncc4cccc2c34)CC1.Cl [Example 19] | significant neurite outgrowth axis extension | significant intraocular pressure reducing action | significant vasoconstriction inhibitory action | significantly improved the pathological condition |  | 
3 | CN[C@H]1CC[C@H](N2CCc3cncc4cccc2c34)CC1.Cl [Example 41] | significant neurite outgrowth axis extension | significant intraocular pressure reducing action | significant vasoconstriction inhibitory action | significantly improved the pathological condition |  | 
4 | CC(=O)NCCN1CCC(N2CCc3cncc4cccc2c34)CC1 [Example 42] |  | significant intraocular pressure reducing action |  |  | ≤ 40 | ≤ 40
5 | CN(C)[C@H]1CC[C@H](N2CCc3cncc4cccc2c34)CC1 [Example 53, trans-[4-(2,3-dihydro-1,5-diazaphenalen-1-yl)cyclohexyl]dimethylamine] |  | significant intraocular pressure reducing action |  |  | ≤ 40 | ≤ 40
6 | FC1CNCCC1N1CCc2cncc3cccc1c23 (stereo not shown) [Example 54, 1-(3-fluoropiperidin-4-yl)-2,3-dihydro-1H-1,5-diazaphenalene] |  | significant intraocular pressure reducing action |  |  | ≤ 40 | ≤ 40
7 | CC(=O)N(C)CCN1CCC(N2CCc3cncc4cccc2c34)CC1 [Example 59, N-{2-[4-(2,3-dihydro-1,5-diazaphenalen-1-yl)piperidin-1-yl]ethyl}-N-methylacetamide] |  | significant intraocular pressure reducing action |  |  | ≤ 40 | ≤ 40
8 | O=C1CCN1CCN1CCC(N2CCc3cncc4cccc2c34)CC1 [Example 60, 1-{2-[4-(2,3-dihydro-1,5-diazaphenalen-1-yl)piperidin-1-yl]ethyl}azetidin-2-one] |  | significant intraocular pressure reducing action |  |  | ≤ 40 | ≤ 40
9 | c1ccc(CN[C@H]2CC[C@H](N3CCc4cncc5cccc3c45)CC2)cc1 [trans-benzyl-[4-(2,3-dihydro-1,5-diazaphenalen-1-yl)cyclohexyl]amine] |  |  |  |  | ≤ 40 | ≤ 40
